According to publication PMC9061999, “Application of the Adverse Outcome Pathway Concept to In Vitro Nephrotoxicity Assessment: Kidney Injury due to Receptor-Mediated Endocytosis and Lysosomal Overload as a Case Study” (Frontiers in Toxicology, 2022):
Structures can show the parent of a compound that is named as a salt. Where two headings read alike, the source gives them in different places.

Assays:
[1] = system: RPTEC/TERT1 cells; assay type: cell-based, human
Procedure: For high content imaging, NRK-52E and RPTEC/TERT1 cells were cultivated in µ-clear half well area microtiter plates (Greiner) according to the protocol described for the cytotoxicity assay with slight modification. Briefly, NRK-52E cells were seeded at 5,000 cells in 100 µL growth medium per well and were incubated under standard growth conditions for 48 h prior to treatment. RPTEC/TERT1 cells were seeded at 15,000 cells in 100 µL growth medium per well and incubated under standard growth conditions for 7–8 days, until cells reached confluence and started to differentiate. This was indicated by the formation of three-dimensional structures referred to as domes which were identified by regular microscopic inspection of the plates. Only differentiated cell cultures with detectable domes were assayed. Cells of both cell lines were treated with serially diluted Polymyxin B sulfate (concentration range 7.8 to 2,000 µM) for 1, 2, 4, 6, or up to 24 h. The assay was carried out on three biological replicates defined as three different non-consecutive passages of the cell culture. Each biological replicate at each treatment concentration was assayed in triplicate wells per plate.
Following treatment, cells were stained with two different combinations of fluorescent dyes: NRK-52E cells with 50 pg/μL LysoView™ 633 (Biotium) and 1 µM SYTO 16 (Thermo Scientific), respectively, for lysosomes and nuclei; RPTEC/TERT1 cells with 10 nM LysoTracker™ Red (Thermo Scientific) and 10 ng/μL Hoechst 33342 (Merck-Sigma Aldrich), respectively, for lysosomes and nuclei. For each cell line a staining solution was obtained by mixing the lysosomes and nuclei dyes in cell culture medium at the concentrations indicated above. The cells were stained by replenishing the medium for 100 µL of staining solution per well followed by incubation at 37°C and 5% CO2 for 30 min before imaging.
Images were acquired with a fully automated fluorescence confocal Opera™ QEHS system (PerkinElmer, United Kingdom) using a ×40 air UPlanApo objective (Olympus) with 0.85 numerical aperture. NRK-52E cells stained with the dyes SYTO 16 and LysoView™633 were imaged with the laser lines 488 and 635 nm, using a 488/561/635 nm primary dichroic mirror, a 510 nm long pass (LP) detection dichroic mirror, a 540/75 nm band pass (BP) emission filter for SYTO 16 and a 690/50 nm BP emission filter for LysoView™ 633. RPTEC/TERT1 cells stained with the dyes Hoechst 33342 and LysoTracker™Red were imaged with the laser lines 405 and 561 nm, using a 405/561/635 nm primary dichroic mirror, a 580 nm LP detection dichroic mirror, a 450/50 nm BP emission filter for Hoechst 33342 and a 600/40 nm BP emission filter for LysoTracker™Red. To prevent cross talk of the fluorescent signals, each dye was imaged consecutively using the combination of lasers and filters described above. The settings for laser power, exposure time and focal height were kept constant for each cell line across all the experiments. For NRK-52E cells images were acquired at 25 randomly distributed positions in a well at a single focal plane whereas for RPTEC/TERT1 cells due to the development of dome structures images were acquired at 9 random positions at three focal planes each 1 μm apart.
The images were analyzed by custom-made image analysis scripts either with the imaging analysis software Acapella (version 2.8 PerkinElmer) or Columbus (version 2.4.0 PerkinElmer). The scripts included modules for the identification and counting of the cell nuclei to extrapolate the number of cells per well, for definition of a cytoplasm surrounding the nucleus, for identification and counting of the lysosome vesicles within the cytoplasm. Additional cellular parameters included the nuclei size, intensity, the cell size (cell area), the lysosome size (lysosome area), intensity and the number of lysosomes normalized by the cell area to compensate for difference in size of the cells.

[2] = system: RPTEC/TERT1 and NRK-52E cells; assay: In vitro key event assays (LAMP-1/2, cathepsin D, cell viability) compared across both cell models; assay type: cell-based, human and rat; settings: for Effect on cell viability / cytotoxicity (KE3): CellTiter-Glo
Procedure: Cells were plated into 96-well tissue culture plates (10,000 cells per well) and were allowed to grow for 48 h (NRK-52E) respectively 10 d (RPTEC/TERT1) prior to 24 h treatment with model stressors. Stock solution for each compound (2000 µM) was prepared in growth medium and serial dilutions (1:1) were made before each experiment. At the end of the 24 h treatment, cell viability was measured using the CellTiter-Glo® assay (Promega). CellTiter-Glo® reagents and buffer were mixed under light-protected conditions and 100 µL CellTiter-Glo® solution was added directly to each well followed by 2 min incubation on an orbital shaker and 10 min incubation at room temperature in the dark to stabilize the luminescence signal. The suspension was mixed via pipetting and 50 µL were transferred into white 96-well plates (PerkinElmer Inc.). The luminescence signal was measured on a multiplate reader (Mithras LB 940; Berthold). Each assay was performed in three independent experiments carried out in triplicates.
For immunocytochemistry experiments, cells were seeded into 8-well chamber slides (Ibidi) at a density of 140 cells per µL in 300 µL growth medium and were allowed to grow for 48 h (NRK-52E) or 10 d (RPTEC/TERT1) respectively. For treatment, stock solutions (1,000 µM) of compounds dissolved in growth medium were freshly prepared and serial dilutions were made before exposure of cells for 24 h. After treatment, cells were washed twice with 150 µL PBS and fixed with 150 µL 4% paraformaldehyde in 1 x PBS for 10 min at room temperature. After fixation, cells were washed 10 min with 150 µL PBS on an orbital shaker followed by permeabilization with 150 µL 0.2% Triton X-100 in 1 x PBS for 5 min at room temperature on an orbital shaker. The permeabilized cells were washed twice with 1 x PBS (150 µL) for 10 min at room temperature on an orbital shaker and then incubated with 150 µL 5% BSA dissolved in 1 x PBS for 1 h at room temperature to block unspecific binding sites. After blocking, 100 µL primary antibody diluted 1:100 in 1% BSA in 1 x PBS were directly pipetted onto the cells and incubated overnight at 4°C. The following antibodies were employed for NRK-52E cells: Anti-LAMP-1 monoclonal IgG1 kappa mouse antibody (Santa Cruz; sc-20011), anti-Cathepsin D mouse monoclonal IgG2 kappa antibody (Santa Cruz; sc-377124); for RPTEC/TERT1 cells: Anti-LAMP-2 monoclonal mouse antibody (Santa Cruz; sc-18822), anti-Cathepsin D mouse monoclonal IgG2b kappa (Novus Biologicals; NBP1-04278); for both cell lines anti-megalin mouse monoclonal IgG1 antibody (Santa Cruz, sc-515772).
After incubation with primary antibody, cells were washed three times for 15 min with 0.2% Tween in 1 x PBS (150 µL) on an orbital shaker. Cells were incubated for 1 h at room temperature with 100 µL CFL 488-conjugated mouse IgG kappa binding protein (1:50) (m-IgGκ BP-CFL 488; Santa Cruz, sc-516176). After incubation the cells were washed three times for 15 min with 0.2% Tween in 1 x PBS on an orbital shaker and once with 150 µL sterile water. Phalloidin-tetramethylrhodamine B isothiocyanate (TRITC) was used to stain the cytoskeleton and was diluted in 100% methanol to a stock concentration of 0.1 mg/ml and further diluted in 1 x PBS to a working concentration of 0.095 µM. After cells were washed once with 1 x PBS for 10 min at room temperature 150 µL phalloidin-TRITC working solution was added and the cells were incubated on an orbital shaker at room temperature for 60–90 min. After incubation, phalloidin-TRITC solution was aspirated, and the cells were washed once with 1 x PBS. Chamber slides were allowed to dry for 15 min at room temperature. To preserve fluorescence 50–100 µL DAPI mounting medium (Vectashield®; Vectorlab, Biozol) was added to the cells and chamber slides were stored at 4°C in the dark until image acquisition. […]

[3] = RPTEC/TERT1, 24 h, 7.8 to 2000 µM (smaller range for CdCl2 and 4-aminophenol), triplicate experiments, Figure S1
[4] = RPTEC/TERT1 and NRK-52E, 24 h treatment

Row | Molecule | Effect on lysosomal endpoints in high content screening [1, 3] | also measured
1 | Nc1ccc(O)cc1 [4-aminophenol] | – | Effect on lysosomal endpoints in high content screening [1]: minor changes
2 | [Cl][Cd][Cl] [CdCl2, cadmium chloride] | most prominent effects on lysosomal endpoints | Cytotoxicity compared between RPTEC/TERT1 and NRK-52E cells ([2]; 24 h treatment, cell viability): more toxic in NRK-52E cells; Effect on LAMP-1/2 expression (KE1) ([2]; RPTEC/TERT1 and NRK-52E, 24 h, immunofluorescence image analysis): only minor effects on LAMP1/2 expression; Effect on cell viability / cytotoxicity (KE3) [2, 4]: significant cytotoxicity
3 | N[C@@H](CSC(Cl)=C(Cl)Cl)C(=O)O [TCVC, S-(1,2,2-trichlorovinyl)-L-cysteine] | minor changes | –
4 | Nc1ccn(C[C@@H](CO)OCP(=O)(O)O)c(=O)n1 [cidofovir] | minor changes | –
5 | CNC(C)C1CCC(N)C(OC2C(N)CC(N)C(OC3OCC(C)(O)C(NC)C3O)C2O)O1 (centres unmarked) [gentamicin] | most prominent effects on lysosomal endpoints | –
6 | CC(C)OC(=O)OCOP(=O)(CO[C@H](C)Cn1cnc2c(N)ncnc21)OCOC(=O)OC(C)C [tenofovir disoproxil fumarate] | minor changes | –
7 | C[C@H](Cn1cnc2c(N)ncnc21)OCP(=O)(O)O [tenofovir] | minor changes | –
8 | CN[C@H](CC(C)C)C(=O)N[C@H]1C(=O)N[C@@H](CC(N)=O)C(=O)N[C@H]2C(=O)N[C@H]3C(=O)N[C@H](C(=O)N[C@H](C(=O)O)c4cc(O)cc(O)c4-c4cc3ccc4O)[C@H](O)c3ccc(c(Cl)c3)Oc3cc2cc(c3O[C@@H]2O[C@H](CO)[C@@H](O)[C@H](O)[C@H]2O[C@H]2C[C@](C)(N)[C@H](O)[C@H](C)O2)Oc2ccc(cc2Cl)[C@H]1O [vancomycin] | – | Effect on lysosomal endpoints in high content screening [1]: most prominent effects on lysosomal endpoints
9 | Polymyxin B nonapeptide | most prominent effects on lysosomal endpoints | Rank order of effects of the 3 polymyxin derivatives across all KEs ([2]; RPTEC/TERT1 and NRK-52E, 24 h): least toxic; Effect on cell viability / cytotoxicity (KE3) [2, 4]: low
